Measured values taken from ChEMBL document CHEMBL1149465, “Identification of isoflavone derivatives as effective anticryptosporidial agents in vitro and in vivo” (J Med Chem, 2006).

Experiments:
Cryptosporidium parvum = experiment: Antiparasitic activity against Cryptosporidium parvum in HCT8 cells; type: functional, organism-based; details: HCT-8
Meriones unguiculatus [1] = experiment: Reduction of oocyst in stools of Cryptosporidium parvum infected gerbils treated with 400 mg/kg at day 12; type: functional; design: scale not given: the % may be the effect or the level left
Meriones unguiculatus [2] = experiment: Deparasitization of Cryptosporidium parvum infected gerbils treated with 400 mg/kg at day 12; type: functional
Meriones unguiculatus [3] = experiment: Reduction of oocyst in stools of Cryptosporidium parvum infected gerbils treated with 400 mg/kg at day 8; type: functional; design: scale not given: the % may be the effect or the level left
Trichomonas vaginalis = experiment: Antiparasitic activity against Trichomonas vaginalis in […] cells; type: functional, organism-based; details: UCH-1
Plasmodium falciparum = experiment: Antiparasitic activity against Plasmodium falciparum T9-96 infected […] cells; type: functional, organism-based
Meriones unguiculatus [4] = experiment: Deparasitization of Cryptosporidium parvum infected gerbils treated with 400 mg/kg at day 8; type: functional
Meriones unguiculatus [5] = experiment: Reduction of oocyst in stools of Cryptosporidium parvum infected gerbils treated with 200 mg/kg at day 8; type: functional; design: scale not given: the % may be the effect or the level left
Meriones unguiculatus [6] = experiment: Deparasitization of Cryptosporidium parvum infected gerbils treated with 200 mg/kg at day 8; type: functional
Meriones unguiculatus [7] = experiment: Reduction of oocyst in stools of Cryptosporidium parvum infected gerbils treated with 100 mg/kg at day 8; type: functional; design: scale not given: the % may be the effect or the level left
Meriones unguiculatus [8] = experiment: Deparasitization of Cryptosporidium parvum infected gerbils treated with 100 mg/kg at day 8; type: functional

SMILES	IC50 (Cryptosporidium parvum)	further results
O=C(Cc1ccc([N+](=O)[O-])cc1)c1c(O)cc(O)cc1O	70.8 µM	
O=C(O)c1oc2cc(O)cc(O)c2c(=O)c1-c1cccc(Br)c1	20.1 µM	
CCOC(=O)c1oc2cc(O)cc(O)c2c(=O)c1-c1ccc([N+](=O)[O-])cc1	64.1 µM	
O=C(Cc1ccc(Br)cc1)c1c(O)cc(O)cc1O	15.9 µM	
O=C(Cc1cccc([N+](=O)[O-])c1)c1c(O)cc(O)cc1O	464 µM	
O=C(Cc1cccc(Br)c1)c1c(O)cc(O)cc1O	17.2 µM	
CC(=O)Oc1ccccc1C(=O)Nc1ncc([N+](=O)[O-])s1 [NITAZOXANIDE]	3.25 µM	Activity (Meriones unguiculatus [5]): 55%; Activity (Meriones unguiculatus [6]): 14%
NC[C@@H]1O[C@H](O[C@H]2[C@@H](O)[C@H](O[C@@H]3[C@@H](O)[C@H](N)C[C@H](N)[C@H]3O[C@H]3O[C@H](CO)[C@@H](O)[C@H](O)[C@H]3N)O[C@@H]2CO)[C@H](N)[C@@H](O)[C@@H]1O [PAROMOMYCIN]		Activity (Meriones unguiculatus [7]): 17.6%; Activity (Meriones unguiculatus [8]): 14%

Continued, in another order:

IC50 (Cryptosporidium parvum)	SMILES	further results
0.6 µM	CCOC(=O)c1oc2cc(O)cc(O)c2c(=O)c1-c1ccc(Br)cc1	Activity (Meriones unguiculatus [1]): 67%; Activity (Meriones unguiculatus [2]): 13%; Activity (Meriones unguiculatus [3]): 53.5%
11.7 µM	O=C1c2c(O)cc(O)cc2OCC1c1ccc([N+](=O)[O-])cc1 (stereo not drawn)	
1.8 µM	O=c1c(-c2ccc([N+](=O)[O-])cc2)coc2cc(O)cc(O)c12	IC50 (Trichomonas vaginalis): 8 µM; IC50 (Plasmodium falciparum): 20 µM
0.3 µM	O=c1c(-c2cccc([N+](=O)[O-])c2)coc2cc(O)cc(O)c12	
1.3 µM	O=c1c(-c2ccc(Br)cc2)coc2cc(O)cc(O)c12	
0.4 µM	O=c1c(-c2cccc(Br)c2)coc2cc(O)cc(O)c12	
15.8 µM	CCOC(=O)c1oc2cc(O)cc(O)c2c(=O)c1-c1cccc([N+](=O)[O-])c1	
1.6 µM	CCOC(=O)c1oc2cc(O)cc(O)c2c(=O)c1-c1cccc(Br)c1	Activity (Meriones unguiculatus [4]): 60%; Activity (Meriones unguiculatus [5]): 90.5%; Activity (Meriones unguiculatus [6]): 60%; Activity (Meriones unguiculatus [3]): 92%
